Earlier results as cited in PMC8198792, “Prediction of Anticancer Peptides with High Efficacy and Low Toxicity by Hybrid Model Based on 3D Structure of Peptides” (International Journal of Molecular Sciences, 2021).
Read-outs that look alike come from different tables or passages of the source.

Tested on: cancer cell lines
Set-up: method as in 6 sources, ref CancerPPD [45] and SATPdb ||| ref CancerPPD/SATPdb ||| ref CancerPPD, SATPdb, Swissprot (PDB) ||| ref CancerPPD/SATPdb/Swissprot(PDB) ||| ref CancerPPD / SATPdb ||| ...
Conditions: cited from earlier work
Description: Supplement ijms-22-05630-s001.zip/ACPs(seguence).xlsx, sheet "D1" | column: Activity || Supplement ijms-22-05630-s001.zip/ACPs(seguence).xlsx, sheet "D2" | column: Activity || Supplement ijms-22-05630-s001.zip/ACPs(seguence).xlsx, sheet "D3" | column: Activity || (+ 2 further places)

[1] = ACPs dataset D3 (supplement sheet "D3"), 1 = ACP, 0 = non-ACP, ref CancerPPD [45] and SATPdb
[2] = ACPs dataset D4 (sheet "D4"), label 1 = ACP, experimentally validated ACPs, ref CancerPPD [45] and SATPdb
[3] = ACPs dataset D5 (sheet "D5"), label 1 = ACP (positive set), sequences with CancerPPD/SATPdb ID, ref CancerPPD, SATPdb
[4] = ACPs dataset D1, 1 = ACP (positive), 0 = non-ACP (negative), label taken from databases, ref CancerPPD [45] and SATPdb
[5] = ACPs dataset sheet D2, 1 = ACP (CancerPPD/SATPdb ID), 0 = non-ACP (Swissprot/PDB ID), ref CancerPPD, SATPdb, Swissprot (PDB)
[6] = ACPs dataset D1, label 1 = ACP, 0 = non-ACP (non-anticancer AMPs from SATPdb), ref CancerPPD/SATPdb
[7] = ACPs dataset D4 (sheet "D4"), label 1 = ACP (CancerPPD ID), 0 = non-ACP (non-anticancer AMP, SATPdb ID), ref CancerPPD [45] and SATPdb
[8] = ACPs dataset D2 (supplement ACPs(seguence).xlsx, sheet D2), dataset label 1/0 (ACP / non-ACP), entries identified by Swissprot(PDB ID), ref CancerPPD/SATPdb/Swissprot(PDB)
[9] = ACPs dataset D5, sheet "D5", label 1 = ACP, 0 = non-ACP, ref CancerPPD [45] and SATPdb
[10] = ACPs dataset D5 (sheet "D5"), label 1 = ACP (positive set), 0 = non-ACP (negative set), ref CancerPPD [45] and SATPdb
[11] = ACPs dataset D4 (sheet "D4"), label 1 = ACP, 0 = non-ACP, ref CancerPPD / SATPdb

Substance | Activity [2] | Activity [3] | Activity [4] | Activity [5] | Activity [7] | further results
FAKKFAKKFKKFAKKFAKFAFAF [compound 1910] | 1 | 1 |  |  |  | Activity [1]: 1
TAWGPCSTTCGLGMATRV [satpdb13892] | 1 | 1 | 1 | 1 |  | 
GCSRWIIGIHGQICRD [satpdb12437] |  |  |  |  | 0 | Activity [6]: 0
ITIPPIIKDTLKKFFKGGIAGVMGKSQ [satpdb11170] |  |  | 0 |  | 0 | 
TEENRELVSELKRP [satpdb12614] | 1 | 1 | 1 | 1 |  | 
KRGFGKKLRKRLKKFRNSIKKRLKNFNVVIPIPLPG [satpdb11105] |  |  | 0 |  | 0 | 
GLLGSIFGAGKKIACALSGLC [satpdb11926] |  |  |  |  | 0 | Activity [6]: 0
TSPQREATCTSEVSGCPKIYNPVCGTDGITYSNECVLCSENKKRQTPVLIQKSGPC [1TGS X-ray 1.80,I,1-56] |  |  |  |  |  | Activity [8]: 0; Activity [9]: 0
FLSSIGKILGNLL [satpdb11843] |  |  |  |  | 0 | Activity [6]: 0
SPWTKCSATCGGGHYMRTR [satpdb19979] | 1 | 1 | 1 | 1 |  | 
GFHDHGPCDPPSHK [satpdb16441] | 1 | 1 | 1 | 1 |  | 
VSRRRRRRGGRRRR [satpdb11057] |  |  | 0 |  | 0 | 
EYHLMNGANGYLTRVNGKTVYRVTKDPVSAVFGVISNCWGSAGAGFGPQH [satpdb10230] |  |  | 0 |  | 0 | 
ILPWKWPWWPWRR [compound 1827] | 1 | 1 | 1 | 1 |  | 
VVGSPSAQDEASPL [satpdb16227] | 1 | 1 | 1 | 1 |  | 
KWKLFKKIGPGKFLHSAKKF [compound 1186] |  |  |  |  | 1 | Activity [1]: 1; Activity [10]: 1
FLGWLFKWAWK [compound 1722] | 1 | 1 |  |  |  | Activity [1]: 1
GLLSVLGSVAKHVLPHVVPVIAEHL [compound 4424] | 1 | 1 | 1 | 1 |  | 
TSWSQCSKTCGTGISTRV [satpdb19109] | 1 | 1 | 1 | 1 |  | 
HGSTTLRDITV [satpdb28282] | 1 | 1 | 1 | 1 |  | 

Substance | Activity [2] | Activity [3] | Activity [4] | Activity [5] | Activity [7] | further results
MPCSCKKYCDPWEVIDGSCGLFNSKYICCREK [1EWS NMR - A 1-32] |  |  |  | 0 |  | Activity [10]: 0
NGREACLDPEAPMVQKIVQKMLKG [satpdb14027] | 1 | 1 | 1 | 1 |  | 
GIGKFLKKAKKFAKAFVKIINN [compound 1117] |  |  |  |  | 1 | Activity [1]: 1; Activity [10]: 1
DGRKICLDPDAPRIKKIVQKKL [satpdb12249] | 1 | 1 | 1 | 1 |  | 
kWkSFLkTFkSLKkTVLHTLLkAISS [compound 1231] |  |  |  |  | 1 | Activity [1]: 1; Activity [10]: 1
GSEGPLKPGARIFSFDGKDVLRHPT [compound 4204] | 1 | 1 | 1 | 1 |  | 
SFGLCRLRRGFCARGRCRFPSIPIGRCSRFVQCCRRVW [1UT3 NMR - A 1-38] |  |  |  |  |  | Activity [8]: 0; Activity [10]: 0
CSTNTFSLSDYWGNKGNWCTATHECMSWCK [satpdb10487] |  |  | 0 |  | 0 | 
KTCENLADTFRGPCFATSNC [compound 4449] | 1 | 1 | 1 | 1 |  | 
VDENAEDTHGLCGEKTCSPAQVCLNNECACTAIRCMIFCPNGFKVDENGCEYPCTCA [3BG4 X-ray 2.50 D 1-57] |  |  |  |  |  | Activity [8]: 0; Activity [9]: 0
GKWLSLLKHILK [compound 3661] |  |  |  |  | 1 | Activity [1]: 1; Activity [10]: 1
NHFTLKCPKTALTEPPTLAY [compound 3362] | 1 | 1 | 1 | 1 |  | 
KWKLF [compound 1209] |  |  |  |  | 1 | Activity [1]: 1; Activity [10]: 1
NGKQVCLDPEAPFLKKVIQKILDS [satpdb17154] | 1 | 1 | 1 | 1 |  | 
MEKVQYLTRSAIRRASTIEMPQQARQNLQNLFINFCLILICLLLICIIVMLL [1N7L NMR - A 1-52] |  |  |  |  |  | Activity [8]: 0; Activity [9]: 0
GMATKAGTAFGKAAKAIIGAAL [satpdb11334] |  |  | 0 |  | 0 | 
IFGAILPLAL GALKNLIK [2N0O NMR - A 1-18] |  |  |  | 0 |  | Activity [10]: 0
GIFLKVLGVGKKVLCGVSGLC [satpdb12520] |  |  |  |  | 0 | Activity [6]: 0
YTMNPRKLFDY [satpdb15978] | 1 | 1 | 1 | 1 |  | 
GKWKKILGHLIR [compound 3645] |  |  |  |  | 1 | Activity [1]: 1; Activity [10]: 1

Substance | Activity [2] | Activity [3] | Activity [4] | Activity [5] | Activity [7] | further results
VAKKLAKLAKKLAKLAL [compound 1919] |  |  |  |  | 1 | Activity [1]: 1; Activity [10]: 1
WDLVVVSAGVAEVGV [satpdb12938] | 1 | 1 | 1 | 1 |  | 
FAKKLAKKLKKLAKKLAKLAKKL [compound 1914] | 1 | 1 |  |  |  | Activity [1]: 1
LCYARRRFAVCV [satpdb13142] |  |  |  |  |  | Activity [6]: 0; Activity [11]: 0
ATCDLLSPFKVGHAACAAHCIARGKRGGWCDKRAVCNCRK [satpdb11323] |  |  | 0 |  | 0 | 
SWLSKTAKKLENSAKKRISEGIAIAIQGGPR [compound 1235] | 1 | 1 | 1 | 1 |  | 
MSAGVITGVLLVFLLLGYLVYALINAEAF [6HRA electron microscopy 3.70, D ,1-29] |  |  |  | 0 |  | Activity [10]: 0
ALLGDFFRKSKEKIGKEFKRIVQRIKDFLRNLVPRTES [satpdb12863] |  |  |  |  |  | Activity [6]: 0; Activity [11]: 0
FLGALAKIISGIF [satpdb11200] |  |  | 0 |  | 0 | 
ILPLKLPLLPLRR [satpdb14372] |  |  |  |  |  | Activity (ACPs dataset D3 (sheet "D3"), label 1 = ACP, 0 = non-ACP, ref CancerPPD/SATPdb): 0; Activity [11]: 0; Activity [9]: 0
GLFAVIKKVAAVIKKL [compound 4120] |  |  |  |  | 1 | Activity [1]: 1; Activity [10]: 1
YNRLCIKPRDWIDECDSNEGGERAYFRNGKGGCDSFWICPEDHTGADYYSSYRDCFNACI [1D0D X-ray 1.62,A,1-60] |  |  |  |  |  | Activity [8]: 0; Activity [9]: 0
GSIPCAESCVYIPCITGIAGCSCKNKVCYYN [satpdb12154] |  |  |  |  | 0 | Activity [6]: 0
FKLFKKIPKFLHLAKKF [compound 1124] | 1 | 1 |  |  |  | Activity [1]: 1
RTCESPSNKFQGVCLNSQSCAKACPSEGFSGGRCSSLRCYCSKAC [satpdb13976] |  |  |  |  | 0 | Activity [6]: 0
TFRAFLSSRLQDLYSIVRRADRAAV [compound 4202] | 1 | 1 | 1 | 1 |  | 
HFLLTLKNLAKKIL [satpdb10120] |  |  |  |  |  | Activity [1]: 0; Activity [11]: 0; Activity [9]: 0
MNQGKIWTVVPPAFGLPLMLGAVAITALLVHAAVLTHTTWYAAFLQGGVKKAA [1IJD X-ray 3.00 A/C/E 1-53] |  |  |  |  |  | Activity [8]: 0; Activity [9]: 0
GLFAVIKKVAKVIKKL [compound 4138] |  |  |  |  | 1 | Activity [1]: 1; Activity [10]: 1
INEFLERSGIPRQRNQ [satpdb14958] | 1 | 1 | 1 | 1 |  | 
